Experimental findings from patent US12365651B2, “Use of pirfenidone and derivatives for modulation of B lymphocyte activity and organ protection from acute tissue damage” (Washington University, priority 2017, dated 2025) are described below.

In experiment [1] the test system is peritoneal derived inflammatory cells (PDICs). In words: CD86 on CD19+ cells in cultured peritoneal derived inflammatory cells (PDICs), wild type. It is filed as cell-based, mouse. The conditions noted are these: for number of CD19+ CD86high lymphocytes: 24 h, p<0.001. The method, then: Peritoneal derived inflammatory cells (PDICs) were harvested from the peritoneal cavity of thioglycolate-stimulated wild-type and TIRAP−/− deficient mice. PDIC cultures contain an admixture of inflammatory cells, including CD19+ B cells (40). TIRAP deficient mice were a gift from Dr. Ruslan Medzhitov (Yale University, New Haven, CT). PDICs were harvested on day 4 after i.p. injection of 1 ml of thioglycolate medium (Millipore, Billerica, MA, USA). Mice were euthanized, and the peritoneal cavity was washed 3-4 times with 3 mLs of Dulbecco's modified medium containing 10% fetal calf serum. A 3 mL syringe with an 18-gauge needle was used to inject the peritoneal cavity and retrieve the medium containing PDICs. Harvested cells were centrifuged at 250 g for 5 minutes, re-suspended in 5 mL of media and then filtered through a 40 μm strainer. Cells were plated at ˜1.5 million cells/mL in 12 or 24 well plates. Primary splenic derived B lymphocytes were isolated with the MagniSort Mouse B cell Enrichment Kit (Invitrogen, Carlsbad, CA, USA) according to manufacturer's instruction and plated in 96 well plates at 1 million cells/ml. The purity of isolated B cells was checked by flow cytometry and was >85% in all reported experiments. Both PDICs and primary B lymphocytes were cultured in DMEM with 10% FCS, 1 mM sodium pyruvate, penicillin/streptomycin (GIBCO, 1×), 2 mM L-Glutamine, 10 mM Hepes and 55 μM 2-Mercaptoethanol.
We used LPS-EB ultrapure lipopolysaccharide (InvivoGen, San Diego, CA, USA) or necrotic cell extracts (NCEs) to stimulate the cell cultures. For stimulation with LPS, LPS was added at 100 ng/mL at the time of plating. NCEs were prepared from H9c2 cells, in a similar manner to the protocol described for mouse heart and mouse liver extracts (18). For stimulation, NCEs were added at a final concentration of 10 μg/mL at the time the cells were plated. LPS and NCE stimulation were performed in the presence and absence of Pirfenidone for 24 hours. […]

In experiment [2] the test system is purified B lymphocytes harvested from the spleen. In words: CD86 on cultured purified splenic B lymphocytes. It is filed as cell-based, mouse. The text has this: We next sought to determine whether the response of B cells to necrotic cytosolic extracts and LPS were cell autonomous, by repeating the above in vitro experiments in purified B lymphocytes harvested from the spleen. […] In contrast, necrotic cytosolic extracts induced a small, non-statistically significant (p=0.62) upregulation of CD19+ CD86high B cells when compared to diluent treated cells (FIG. 10G). Similar results were obtained in splenic B lymphocytes from TIRAP−/− animals (FIG. 10H).
Peritoneal derived inflammatory cells (PDICs) were harvested from the peritoneal cavity of thioglycolate-stimulated wild-type and TIRAP−/− deficient mice. PDIC cultures contain an admixture of inflammatory cells, including CD19+ B cells (40). TIRAP deficient mice were a gift from Dr. Ruslan Medzhitov (Yale University, New Haven, CT). PDICs were harvested on day 4 after i.p. injection of 1 ml of thioglycolate medium (Millipore, Billerica, MA, USA). Mice were euthanized, and the peritoneal cavity was washed 3-4 times with 3 mLs of Dulbecco's modified medium containing 10% fetal calf serum. A 3 mL syringe with an 18-gauge needle was used to inject the peritoneal cavity and retrieve the medium containing PDICs. Harvested cells were centrifuged at 250 g for 5 minutes, re-suspended in 5 mL of media and then filtered through a 40 μm strainer. […]

Consider `Cc1ccc(=O)n(-c2ccccc2)c1` [Pirfenidone, 5 methyl-1-phenyl-2-[H] pyridone], for which the “LPS induced expression of CD86 on B cells” value is recorded as “significantly reduced” in experiment [1] (B lymphocytes from the peritoneum, 24 hours, LPS + 0.5% pirfenidone) and “significantly reduced” in experiment [2] (B lymphocytes from the spleen, 24 hours, LPS + 0.5% pirfenidone). Moreover, the “number of CD19+ CD86high lymphocytes” value in experiment [1] (PDICs stimulated with LPS) and in experiment [1] (PDICs stimulated with cytosolic extracts from necrotic cells) was “significantly attenuated” in each case. For the same compound, the “LPS provoked increase in CD19+ CD86high cells” value in experiment [2] (purified splenic B lymphocytes, wild type, LPS) is “partially sensitive to inhibition”.
